Assay results published in patent US6376670B1, “Quinoline-indole antimicrobial agents, uses and compositions related thereto” (Sepracor Inc., priority 1997, dated 2002).
Like-named read-outs stand apart in the source and are kept apart here.

Assays:
[1] = test system: vancomycin-resistant Enterococcus spp. (VRE); experiment: Determination of MIC values (BHI broth, 96 well microtiter plate); assay type: cell-based; details: Enterococcus, VRE, BHI broth, read-out: MIC VREF
Description: (§1) Stock solutions of compounds are prepared with a concentration of 10 mg/mL. These solutions are then diluted 1:4 to give a concentration of 2.5 mg/mL. The compounds are then serially diluted 1:2 for 6 iterations. The concentrations made for each compound are 2.5, 1.25, 0.625, 0.3125, 0.156, 0.078, and 0.039 mg/mL. A control sample (no compound) is run along with each compound tested. All dilutions are made in DMSO.
(§2) All wells of a 96 well microtiter plate are filled with 100 μL of BHI (Brain-Heart Infusion) broth. Columns on the plate are labeled 1-12, and rows are labeled A-H. Each column of wells is used to test one series of diluted compounds. Into each well of 100 μL of BHI broth, 1 μL of diluted compound is placed for a 1:100 dilution. This makes the final concentration of each drug series 25, 12.5, 6.25, 3.125, 1.56, 0.78, 0.39, and 0 μg/mL.
(§3) Test Organism: A sterile 15 mL screw cap tube is filled wth 3 mL of BHI broth. Next, 2-3 colonies of test organism are inoculated into the tube. The tube is then incubated at 37° C. in a CO2 (approx. 7%) atmosphere jar. The organisms are allowed to grow to the density of a 0.5 McFarland standard (10^8 cells/mL). The organism is then inoculated into each well of the microtiter plate containing the diluted compounds to be tested for MIC. The inoculum is 1 μL in volume and represents 10^5 to 10^6 cells/mL.
(§4) After inoculation the plates are covered and incubated at 37° C. and approx. 7-10% CO2 atmosphere overnight (about 16 hours). The plates are then observed for growth, the well with the lowest concentration of drug and no observable growth represents the well determining the MIC.

[2] = test system: methicillin-resistant Staphylococcus aureus (MRSA); experiment: as above; assay type: cell-based; details: Staphylococcus aureus, MRSA, BHI broth, read-out: MIC MRSA
Description: as §1, §2, §3, §4

[3] = 16 h, 37° C., overnight (about 16 hours)

| SMILES | MIC [1, 3] [mg/L] | MIC [2, 3] [mg/L] | MIC ([1]; VREF, overnight 37° C.) [mg/L] | MIC ([2]; overnight 37° C.) [mg/L] |
| --- | --- | --- | --- | --- |
| Cc1cc2nc(-c3c[nH]c4ccc(Br)cc34)cc(C(=O)N3CCCNCC3)c2cc1C [Example 130] | < 7 | < 7 |  |  |
| NCC1CCCC(CNC(=O)c2cc(-c3c[nH]c4ccc(Br)cc34)nc3ccccc23)C1 (stereo not shown) [compound 5] | < 7 | < 7 |  |  |
| CNCc1ccc(CNCc2cc(-c3c[nH]c4ccc(Br)cc34)nc3ccccc23)cc1 [Example 50] | < 25 | < 7 |  |  |
| O=C(c1cc(-c2c[nH]c3ccc(Br)cc23)nc2ccc(I)cc12)N1CCNCC1 [Example 54] | < 7 | < 7 |  |  |
| NCCCN1CCN(CCCNC(=O)c2cc(-c3c[nH]c4ccc(Br)cc34)nc3ccc(I)cc23)CC1 [Example 70] | < 25 | < 7 |  |  |
| NCCCCCNC(=O)c1cc(-c2c[nH]c3ccc(Br)cc23)nc2ccccc12 [Example 41] | < 25 | < 25 |  |  |
| O=C(Nc1ccc(Cl)cc1C(F)(F)F)N1CCN(C(=O)c2cc(-c3c[nH]c4ccc(Br)cc34)nc3ccccc23)CC1 [Example 66] | > 25 | > 25 |  |  |
| Cc1[nH]c2ccccc2c1-c1ccc2cc(Cl)ccc2n1 [Example 197] | > 25 | < 7 |  |  |
| Cn1cc(-c2ccc3cc(Cl)ccc3n2)c2cc(Cl)ccc21 [Example 180] | > 25 | > 25 |  |  |
| O=C(NCc1ccc(CNC(=O)c2cc(-c3c[nH]c4ccc(Br)cc34)nc3ccccc23)cc1)Nc1cc(C(F)(F)F)cc(C(F)(F)F)c1 [Example 90] | < 7 | < 25 |  |  |
| O=C(NC1CCOC1=O)c1cc(-c2c[nH]c3ccc(Br)cc23)nc2ccccc12 (stereo not shown) [Example 34] | < 25 | < 25 |  |  |
| COc1ccc2[nH]cc(-c3ccc4ccccc4n3)c2c1 [Example 185] | > 25 | < 25 |  |  |
| O=C(NCCCCC1CCCNC1)c1cc(-c2c[nH]c3ccc(Br)cc23)nc2ccccc12 (stereo not shown) [Example 49] | < 7 | < 7 |  |  |
| NCC1CCC(CNC(=O)c2cc(-c3c[nH]c4ccc(Br)cc34)nc3ccccc23)CC1 (stereo not shown) [Example 42] | < 25 | > 25 |  |  |
| Cn1cc(-c2ccc3ccccc3n2)c2cc(Br)ccc21 [Example 178] | > 25 | > 25 |  |  |
| O=C(c1cc(-c2c[nH]c3ccc(Br)cc23)nc2ccccc12)N1CCCNCC1 [Example 14] | < 25 | < 25 |  |  |
| O=C(Nc1ccccc1OC(F)(F)F)N1CCN(C(=O)c2cc(-c3c[nH]c4ccc(Br)cc34)nc3ccccc23)CC1 [Example 69] | > 25 | > 25 |  |  |

| SMILES | MIC [1, 3] [mg/L] | MIC [2, 3] [mg/L] | MIC ([1]; VREF, overnight 37° C.) [mg/L] | MIC ([2]; overnight 37° C.) [mg/L] |
| --- | --- | --- | --- | --- |
| Cn1cc(-c2ccc3cc(Cl)ccc3n2)c2cc(OCc3ccccc3)ccc21 [Example 213] |  |  | < 25 | < 25 |
| Cn1cc(-c2ccc3cc(Cl)ccc3n2)c2cc(F)ccc21 [Example 210] |  |  | > 25 | < 7 |
| NCCCCNC(=O)c1cc(-c2c[nH]c3ccc(Br)cc23)nc2ccccc12 [compound 58] | < 25 | < 25 |  |  |
| O=C(NCCN1CCCC1)c1cc(-c2c[nH]c3ccc(Br)cc23)nc2ccccc12 [Example 44] | < 25 | < 25 |  |  |
| O=C(Nc1ccc(Cl)c(C(F)(F)F)c1)N1CCN(C(=O)c2cc(-c3c[nH]c4ccc(Br)cc34)nc3ccccc23)CC1 [Example 67] | < 7 | < 7 |  |  |
| O=C(c1cc(-c2c[nH]c3ccc(Br)cc23)nc2ccccc12)N1CCC(N2CCCCC2)CC1 [Example 47] | < 25 | < 25 |  |  |
| O=C(c1cc(-c2c[nH]c3ccc(Br)cc23)nc2ccc(Cl)cc12)N1CCCNCC1 [Example 135] | < 7 | < 7 |  |  |
| O=C(c1cc(-c2c[nH]c3ccc(Br)cc23)nc2ccccc12)N1CCN(Cc2ccccc2)CC1 [Example 45] | > 25 | > 25 |  |  |
| NCc1ccc(CNC(=O)c2cc(-c3c[nH]c4ccc(Br)cc34)nc3ccc(C#CCN4CCC(Cc5ccccc5)CC4)cc23)cc1 [Example 75] | > 25 | > 25 |  |  |
| O=C(CCC(=O)N1CCN(C(=O)c2cc(-c3c[nH]c4ccc(Br)cc34)nc3ccccc23)CC1)N1CCN(C(=O)c2cc(-c3c[nH]c4ccc(Br)cc34)nc3ccccc23)CC1 [Example 62] | > 25 | > 25 |  |  |
| NCCCNC(=O)c1cc(-c2c[nH]c3ccccc23)nc2ccccc12 [compound 1] | > 25 | > 25 |  |  |
| NC1CCN(C(=O)c2cc(-c3c[nH]c4ccc(Br)cc34)nc3ccccc23)C1 (stereo not shown) [Example 43] | < 25 | < 25 |  |  |
| NCCN(CCNC(=O)c1cccc2nc(-c3c[nH]c4ccc(Br)cc34)ccc12)CCNC(=O)c1cc(-c2c[nH]c3ccc(Br)cc23)nc2ccccc12 [Example 51] | < 7 | < 7 |  |  |
| O=C1c2ccccc2C(=O)N1CCCCn1cc(-c2ccc3cc(Cl)ccc3n2)c2ccc(F)cc21 [Example 267] |  |  | > 25 | > 25 |
| COC(=O)C(=O)N1CCN(C(=O)c2cc(-c3c[nH]c4ccc(Br)cc34)nc3ccccc23)CC1 [Example 29] | < 25 | < 25 |  |  |
| COc1ccc(NC(=O)N2CCN(C(=O)c3cc(-c4c[nH]c5ccc(Br)cc45)nc4ccccc34)CC2)c(OC)c1 [Example 63] | > 25 | > 25 |  |  |

Second part, the molecule after the results:

| MIC [1, 3] [mg/L] | MIC [2, 3] [mg/L] | MIC ([1]; VREF, overnight 37° C.) [mg/L] | MIC ([2]; overnight 37° C.) [mg/L] | SMILES |
| --- | --- | --- | --- | --- |
| > 25 | < 25 |  |  | NCc1ccc(CNC(=O)c2cc(-c3c[nH]c4ccc(F)cc34)nc3ccccc23)cc1 [Example 15] |
| < 25 | < 25 |  |  | COc1cc2nc(-c3c[nH]c4ccc(Br)cc34)cc(C(=O)NCc3ccc(CN)cc3)c2cc1OC [Example 98] |
| > 25 | > 25 |  |  | NCc1ccc(CNC(=O)c2ccc3nc(-c4c[nH]c5ccc(Br)cc45)ccc3c2)cc1 [compound 6] |
| > 25 | > 25 |  |  | Cc1[nH]c2ccccc2c1-c1cc(C(=O)NCc2ccc(CN)cc2)c2ccccc2n1 [Example 23] |
| < 25 | < 25 |  |  | Cc1cc(Cl)cc2c(C(=O)NCc3ccc(CN)cc3)cc(-c3c[nH]c4ccc(Br)cc34)nc12 [Example 56] |
| > 25 | > 25 |  |  | NCc1ccc(CNC(=O)c2cc(-c3c[nH]c4cccc(Cl)c34)nc3ccccc23)cc1 [Example 21] |
| < 25 | < 25 |  |  | NCc1ccc(CNC(=O)c2cc(-c3ccc4ccccc4c3)nc3ccccc23)cc1 [Example 87] |
| < 25 | < 25 |  |  | NCc1ccc(CNC(=O)c2cc(-c3c[nH]c4cc(F)ccc34)nc3ccccc23)cc1 [Example 80] |
|  |  | < 25 | < 7 | CN(CC#Cc1ccc2c(C(=O)NCc3ccc(CN)cc3)cc(-c3c[nH]c4ccc(Br)cc34)nc2c1)C1CCCCC1 [Example 264] |
| > 25 | > 25 |  |  | NCc1ccc(CNC(=O)c2cc(-c3ccsc3)nc3ccc(Br)cc23)cc1 [Example 83] |
| < 25 | < 25 |  |  | NCc1ccc(CNC(=O)c2cc(-c3c[nH]c4cc(Cl)ccc34)nc3ccccc23)cc1 [Example 20] |
| < 7 | < 7 |  |  | Cc1cc2nc(-c3c[nH]c4ccc(Br)cc34)cc(C(=O)NCc3cccc(CN)c3)c2cc1C [Example 129] |
| < 7 | < 7 |  |  | NCc1ccc(CNCc2cc(-c3c[nH]c4ccc(Br)cc34)nc3ccccc23)cc1 [Example 39] |
| > 25 | > 25 |  |  | Cn1ccc(-c2cc(C(=O)NCc3ccc(CN)cc3)c3ccccc3n2)c1 [Example 86] |
| > 25 | > 25 |  |  | NCc1cccc(CNC(=O)c2cc(-c3ccsc3)nc3ccc(Br)cc23)c1 [Example 166] |
| < 25 | > 25 |  |  | COC(=O)c1ccc2nc(-c3c[nH]c4ccc(Br)cc34)cc(C(=O)NCc3ccc(CN)cc3)c2c1 [Example 105] |
| < 25 | < 7 |  |  | NCc1ccc(CNC(=O)c2cc3ccccc3c(-c3c[nH]c4ccc(Br)cc34)n2)cc1 [Example 13] |
|  |  | < 7 | < 7 | NCc1ccc(CNC(=O)c2cc(-c3c[nH]c4ccc(Br)cc34)nc3cc(Cl)c(C#CCN4CCCCC4)cc23)cc1 [Example 268] |
| < 25 | < 7 |  |  | NCc1ccc(CNC(=O)c2cc(-c3c[nH]c4ccc(Br)cc34)nc3ccc(C#CCN4CCOCC4)cc23)cc1 [Example 74] |
|  |  | < 7 | < 7 | Cn1cc(-c2cc(C(=O)NCc3ccc(CN)cc3)c3cc(I)ccc3n2)c2cc(Br)ccc21 [Example 269] |
| < 7 | < 7 |  |  | NCc1ccc(CNC(=O)c2cc(-c3c[nH]c4ccc(Br)cc34)nc3ccc(Cl)cc23)cc1 [Example 121] |
| > 25 | > 25 |  |  | NCc1ccc(CNC(=O)c2cc(-c3ccncc3)nc3ccc(Br)cc23)cc1 [Example 94] |
| < 25 | < 25 |  |  | NCCNC(=O)c1cc(-c2c[nH]c3ccc(Br)cc23)nc2ccccc12 [compound 2] |
